From patent US8685970B2, “Quinolines and related analogs as sirtuin modulators” (GlaxoSmithKline, LLC, priority 2008, dated 2014)

The compounds below were run against T1, SIRT1 (Homo sapiens, UniProt Q96EB6) (assay: Mass spectrometry based SIRT1 deacetylation assay (activation)). Details: 10 nM SIRT1, 0.5 μM peptide substrate, 120 μM βNAD+, 25 min at 25° C.
T1 sequence (Q96EB6 1-747): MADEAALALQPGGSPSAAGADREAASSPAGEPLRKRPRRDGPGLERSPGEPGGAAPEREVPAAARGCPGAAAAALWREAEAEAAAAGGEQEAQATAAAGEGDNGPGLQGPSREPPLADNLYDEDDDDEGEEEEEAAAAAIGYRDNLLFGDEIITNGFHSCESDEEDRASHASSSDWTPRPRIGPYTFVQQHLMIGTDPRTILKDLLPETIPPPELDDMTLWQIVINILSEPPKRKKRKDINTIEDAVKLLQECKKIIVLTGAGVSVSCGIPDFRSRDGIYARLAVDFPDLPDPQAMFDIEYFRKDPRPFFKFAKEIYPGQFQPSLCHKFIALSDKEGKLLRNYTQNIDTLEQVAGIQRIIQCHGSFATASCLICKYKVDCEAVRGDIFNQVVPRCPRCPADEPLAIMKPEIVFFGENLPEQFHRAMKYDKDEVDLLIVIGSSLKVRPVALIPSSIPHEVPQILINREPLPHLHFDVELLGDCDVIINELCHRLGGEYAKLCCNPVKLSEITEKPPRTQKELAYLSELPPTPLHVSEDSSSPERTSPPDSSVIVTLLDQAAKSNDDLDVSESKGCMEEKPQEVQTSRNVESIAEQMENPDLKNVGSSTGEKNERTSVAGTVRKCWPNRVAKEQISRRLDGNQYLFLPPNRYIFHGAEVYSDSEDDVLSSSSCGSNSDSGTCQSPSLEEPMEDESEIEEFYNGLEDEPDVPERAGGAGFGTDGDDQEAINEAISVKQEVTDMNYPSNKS
Assay type: biochemical
From the text: A mass spectrometry based assay was used to identify modulators of SIRT1 activity. The mass spectrometry based assay utilizes a peptide having 20 amino acid residues as follows: Ac-EE-K (biotin)-GQSTSSHSK (Ac)N1eSTEG-K(5TMR)-EE-NH2 (SEQ ID NO: 1) wherein K(Ac) is an acetylated lysine residue and Nle is a norleucine. The peptide is labeled with the fluorophore 5TMR (excitation 540 nm/emission 580 nm) at the C-terminus. The sequence of the peptide substrate is based on p53 with several modifications. In addition, the methionine residue naturally present in the sequence was replaced with the norleucine because the methionine may be susceptible to oxidation during synthesis and purification.
The mass spectrometry assay is conducted as follows: 0.5 μM peptide substrate and 120 μM βNAD^+ is incubated with 10 nM SIRT1 for 25 minutes at 25° C. in a reaction buffer (50 mM Tris-acetate pH 8, 137 mM NaCl, 2.7 mM KCl, 1 mM MgCl2, 5 mM DTT, 0.05% BSA). Test compounds may be added to the reaction as described above. The SirT1 gene is cloned into a T7-promoter containing vector and transformed into BL21(DE3). After the 25 minute incubation with SIRT1, 10 μL of 10% formic acid is added to stop the reaction. Reactions are sealed and frozen for later mass spec analysis. Determination of the mass of the substrate peptide allows for precise determination of the degree of acetylation (i.e. starting material) as compared to deacetylated peptide (product).
A control for inhibition of sirtuin activity is conducted by adding 1 μL of 500 mM nicotinamide as a negative control at the start of the reaction (e.g., permits determination of maximum sirtuin inhibition). A control for activation of sirtuin activity is conducted using 10 nM of sirtuin protein, with 1 μL of DMSO in place of compound, to determine the amount of deacetylation of the substrate at a given timepoint within the linear range of the assay. This timepoint is the same as that used for test compounds and, within the linear range, the endpoint represents a change in velocity.
For the above assay, SIRT1 protein was expressed and purified as follows. The SirT1 gene was cloned into a T7-promoter containing vector and transformed into BL21(DE3). The protein was expressed by induction with 1 mM IPTG as an N-terminal His-tag fusion protein at 18° C. overnight and harvested at 30,000×g. Cells were lysed with lysozyme in lysis buffer (50 mM Tris-HCl, 2 mM Tris[2-carboxyethyl]phosphine (TCEP), 10 μM ZnCl2, 200 mM NaCl) and further treated with sonication for 10 min for complete lysis. The protein was purified over a Ni-NTA column (Amersham) and fractions containing pure protein were pooled, concentrated and run over a sizing column (Sephadex S200 26/60 global). The peak containing soluble protein was collected and run on an Ion-exchange column (MonoQ). Gradient elution (200 mM-500 mM NaCl) yielded pure protein. This protein was concentrated and dialyzed against dialysis buffer (20 mM Tris-HCl, 2 mM TCEP) overnight. The protein was aliquoted and frozen at −80° C. until further use.
Sirtuin modulating compounds that activated SIRT1 were identified using the assay described above and are shown below in Table 1. The EC1.5 values represent the concentration of test compounds that result in 150% activation of SIRT1. The EC1.5 values for the activating compounds are represented by A (EC1.5<1.0 uM), B (EC1.5 1-25 uM), C (EC1.5>25 uM). The percent maximum fold activation is represented by A (Fold activation >200%) or B (Fold Activation <200%). “NT” indicates the compound was not tested in a particular assay.

Structure (SMILES) | % Fold Act. (percent maximum fold activation) | EC1.5 (concentration of test compound that results in 150% activation of SIRT1)
O=C(Nc1cccc(OC2CCNC2)c1)c1cccc2ccc(-c3cccc(C(F)(F)F)c3)nc12 (stereo not shown) [Compound 257] | A (Fold activation >200%) | A (EC1.5<1.0 uM)
O=C(NCc1ccccn1)c1cccc2ccc(-c3cccc(C(F)(F)F)c3)nc12 [Compound 35] | B (Fold Activation <200%) | B (EC1.5 1-25 uM)
O=C(NC1CCCC1)c1cccc2ccc(-c3cccc(O[C@@H]4CCNC4)c3)nc12 [Compound 102] | A (Fold activation >200%) | B (EC1.5 1-25 uM)
O=C(Nc1ncc(CN2CCCC2)s1)c1cccc2ccc(-c3cccnc3)nc12 [Compound 218] | A (Fold activation >200%) | B (EC1.5 1-25 uM)
Cc1cc(C)nc(NC(=O)c2cccc3ccc(-c4cccnc4)nc23)c1 [Compound 248] | A (Fold activation >200%) | A (EC1.5<1.0 uM)
O=C(Nc1ncnc2ccc(-c3cccc(OC(F)(F)F)c3)nc12)c1cscn1 [Compound 301] | A (Fold activation >200%) | A (EC1.5<1.0 uM)
O=C(Nc1ccccn1)c1cccc2cnc(-c3cccnc3)nc12 [Compound 298] | – | C (EC1.5>25 uM)
O=C(Nc1ccc(Cl)cn1)c1cccc2ccc(-c3cccc(C(F)(F)F)c3)nc12 [Compound 56] | B (Fold Activation <200%) | A (EC1.5<1.0 uM)
O=C(Nc1ccnc(Cl)c1)c1cccc2ccc(-c3cccc(C(F)(F)F)c3)nc12 [Compound 60] | A (Fold activation >200%) | A (EC1.5<1.0 uM)
O=C(Nc1cccc2ccc(-c3ccc(F)c(C(F)(F)F)c3)nc12)c1cscn1 [Compound 158] | – | C (EC1.5>25 uM)
O=C(Nc1nccs1)c1cccc2ncc(-c3cccc(C(F)(F)F)c3)nc12 [Compound 123] | – | C (EC1.5>25 uM)
O=C(NCc1cccnc1)c1cccc2ccc(-c3cccc(OC4CCNCC4)c3)nc12 [Compound 95] | A (Fold activation >200%) | B (EC1.5 1-25 uM)
Cc1cnc(NC(=O)c2cccc3ccc(-c4cccnc4)nc23)s1 [Compound 241] | B (Fold Activation <200%) | A (EC1.5<1.0 uM)
Cc1cnc(NC(=O)c2cccc3ccc(-c4cccc(OC5CCNCC5)c4)nc23)s1 [Compound 134] | A (Fold activation >200%) | A (EC1.5<1.0 uM)
Cc1cc(C)nc(NC(=O)c2cccc3ccc(-c4cccc(N5CCOCC5)c4)nc23)c1 [Compound 267] | A (Fold activation >200%) | A (EC1.5<1.0 uM)
O=C(Nc1cccc2ccc(-c3cccc(F)c3)nc12)c1cscn1 [Compound 74] | B (Fold Activation <200%) | B (EC1.5 1-25 uM)

Structure (SMILES) | % Fold Act. (percent maximum fold activation) | EC1.5 (concentration of test compound that results in 150% activation of SIRT1)
O=C(Nc1cccnn1)c1cccc2ccc(-c3cccc(C(F)(F)F)c3)nc12 [Compound 100] | A (Fold activation >200%) | A (EC1.5<1.0 uM)
O=C(Nc1cccnc1)c1cccc2ccc(-c3cccc(OC4CCNCC4)c3)nc12 [Compound 132] | A (Fold activation >200%) | A (EC1.5<1.0 uM)
O=C(Nc1cccc2ccc(-c3cccc(OC(F)(F)F)c3)nc12)c1cnc2ccccc2n1 [Compound 23] | – | C (EC1.5>25 uM)
O=C(Nc1cccc2ccc(-c3ccccc3F)nc12)c1cscn1 [Compound 75] | A (Fold activation >200%) | B (EC1.5 1-25 uM)
CS(=O)(=O)c1ccccc1-c1ccc2cccc(NC(=O)c3cscn3)c2n1 [Compound 93] | A (Fold activation >200%) | A (EC1.5<1.0 uM)
O=C(Nc1nc(CN2CCCC2)cs1)c1cccc2ccc(-c3cccc(C(F)(F)F)c3)nc12 [Compound 147] | A (Fold activation >200%) | A (EC1.5<1.0 uM)
O=C(Nc1cccnn1)c1cccc2ccc(-c3cccnc3)nc12 [Compound 263] | A (Fold activation >200%) | A (EC1.5<1.0 uM)
Fc1ccc(-c2ccc3cccc(NCc4cccnc4)c3n2)cc1C(F)(F)F [Compound 166] | – | C (EC1.5>25 uM)
O=C(Nc1ccncn1)c1cccc2ccc(-c3ccccc3C(F)(F)F)nc12 [Compound 87] | A (Fold activation >200%) | A (EC1.5<1.0 uM)
O=C(Nc1ccccn1)c1cccc2cc(C(F)(F)F)c(-c3ccccc3)nc12 [Compound 184] | – | C (EC1.5>25 uM)
O=C(Nc1nccs1)c1cccc2cnc(-c3cccc(N4CCOCC4)c3)nc12 [Compound 299] | B (Fold Activation <200%) | B (EC1.5 1-25 uM)
O=C(Nc1cnccn1)c1cccc2ccc(-c3cccc(OC(F)(F)F)c3)nc12 [Compound 17] | A (Fold activation >200%) | A (EC1.5<1.0 uM)
O=C(Nc1cccc(CN2CCCC2)n1)c1cccc2ccc(-c3cccc(C(F)F)c3)nc12 [Compound 288] | A (Fold activation >200%) | A (EC1.5<1.0 uM)
O=S(=O)(Nc1cccc2ccc(-c3cccc(C(F)(F)F)c3)nc12)c1ccccn1 [Compound 273] | – | C (EC1.5>25 uM)
O=C(Nc1ncnc2ccc(-c3cccc(C(F)(F)F)c3)nc12)c1cscn1 [Compound 259] | A (Fold activation >200%) | A (EC1.5<1.0 uM)
